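Each compound was tested at five concentrations against cells in 96-well plates for 48 hours. GI50 is the concentration that inhibits growth by half.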 Activity calls are given as the source filed them. No stated cut-off is given here; in the data, active = GI50 up to about 1.1 µM and inactive = higher.
How the values were obtained:
Test in all cases: NCI-60 cell line screen, 48 h
KM-20L2 = test system: KM-20L2
DMS-273 = test system: DMS-273
DMS-114 = test system: DMS-114
RXF 631 = test system: RXF 631
SNB-78 = test system: SNB-78
HOP-18 = test system: HOP-18
XF498 = test system: XF498
DLD-1 = test system: DLD-1
BT-549 = test system: BT-549

| Compound | GI50 (KM-20L2) | GI50 (DMS-273) | GI50 (DMS-114) | GI50 (RXF 631) | GI50 (SNB-78) | GI50 (HOP-18) | GI50 (XF498) | GI50 (DLD-1) | GI50 (BT-549) |
| --- | --- | --- | --- | --- | --- | --- | --- | --- | --- |
| C[S+](C)CCOC(=O)C(=[N+]=[N-])c1ccc([N+](=O)[O-])cc1 | > 100 µM (inactive) | > 100 µM (inactive) | > 100 µM (inactive) | > 100 µM (inactive) | > 100 µM (inactive) | > 100 µM (inactive) | > 100 µM (inactive) |  |  |
| O=C1NC2C(=CC(O)C(O)C2O)c2cc3c(cc21)OCO3 (configuration not stated) | 0.305 µM (active) | 0.436 µM (active) | 0.43 µM (active) | 0.433 µM (active) | 0.569 µM (active) | 1.48 µM (inactive) | 0.171 µM (active) | 0.255 µM (active) |  |
| CC1=C(C(=O)Nc2cccc(C(F)(F)F)c2)C(c2ccc(O)cc2)C(C(=O)Nc2cccc(C(F)(F)F)c2)=C(C)N1 | 18.3 µM (inactive) |  | 14.8 µM (inactive) | 14.8 µM (inactive) | 23 µM (inactive) |  | 2.61 µM (inactive) | 20.5 µM (inactive) |  |
| CCN(N=O)C1C2(CCCC2)NC(=O)C12CCCC2 (configuration not stated) | > 100 µM (inactive) |  | > 100 µM (inactive) | > 100 µM (inactive) | > 100 µM (inactive) | > 100 µM (inactive) | > 100 µM (inactive) | > 100 µM (inactive) |  |
| O=C1c2ccccc2C(=O)c2sc(Nc3ccc([N+](=O)[O-])cc3)nc21 | 22.7 µM (inactive) | 7.69 µM (inactive) | 2.49 µM (inactive) | 19.5 µM (inactive) | 10 µM (inactive) | 4.33 µM (inactive) | 2.17 µM (inactive) | 4.19 µM (inactive) | 14.3 µM (inactive) |
